Data: paper PMC11134331, “Cell-active small molecule inhibitors validate the SNM1A DNA repair nuclease as a cancer target” (Chemical Science, 2024)

Experiments:
[1] = system: γH2AX foci in RPE-1 cells; test: microscopic analysis of damage-induced subnuclear foci, RPE-1 cells; format: cell-based, human; conditions: RPE-1, cisplatin treated, without 19
Description: (§1) To assess the number of nuclear foci following cisplatin/inhibitor treatments, cells were plated in glass bottom dishes (as above) and allowed to attach. Following treatment, cells were fixed with 4% (v/v) formaldehyde in PBS, blocked with immunofluoresence (IF) blocking buffer (5% horse serum, 1% saponin in PBS) for 1 h, then incubated with primary antibodies at the desired concentrations in IF blocking buffer (overnight, 4 °C).
Images were imported into ImageJ and foci were counted using a macro adjusting for staining levels between experiments. Anti-γH2AX antibodies were a mouse monoclonal (Millipore; JBW301).

[2] = system: γH2AX and EGFP-SNM1A foci in U2OS cells; test: microscopic analysis of damage-induced subnuclear foci, U2OS cells expressing EGFP-SNM1A; format: cell-based, human; conditions: U2OS, cisplatin treated, without 19
Description: To this end, cells stably expressing N-terminally EGFP-tagged SNM1A (EGFP-SNM1A) were treated with 50 μM cisplatin alone, 19 (50 μM), or with a combination of both compounds. It is known that on treatment of cells with DNA crosslinking agents, SNM1A forms subnuclear foci that are associated with ongoing sites of DNA repair.[37] […] As previously established, cisplatin treatment efficiently induces co-localisation of EGFP-SNM1A foci and γH2AX foci within 4 hours following treatment, marking sites of cisplatin damage and its repair (Fig. 6C–E). These largely resolved 24 hours post-treatment, again consistent with previous studies.[16,37] Co-treatment of cells with 19 and cisplatin saw a robust induction of SNM1A foci, consistent with the SNM1A activity being dispensable for its localisation to sites of crosslink repair, and γH2AX foci formation (Fig. 6C–E). […] This clear persistence of repair intermediates and trapping of EGFP-SNM1A at the sites of these repair intermediate implies that 19 engages with SNM1A in a cellular context, delaying the completion of cisplatin crosslink repair, which, in turn, results in the sensitisation of cells to cisplatin.
as §1, with “°C). After washing cells three times with PBS, cells were incubated with secondary antibodies for 2–4 hours in IF blocking buffer, washed a further 3 times with PBS then stained with Hoechst 333 258 (1 μg mL^−1 in PBS) for 30 minutes before a further three washes (all washes and incubations were performed at room temperature, unless otherwise stated).” for “°C).”
Confocal images were obtained with a Plan APO 63X 1.40NA oil immersion objective, a pinhole setting of 1 AU, bandpass emission settings of 410–468 nm for Hoechst, 490–544 nm for EGFP, 579–624 nm for RFP or Alexa 568, and 633–695 nm for Alexa 647, a projected pixel dimension of around 110 nm × 110 nm, a pixel dwell time of 1.35 μs, and with a line averaging setting of 2. In order to ensure sufficient cell numbers (N > 300), images were acquired in a tiled 5 × 5 format corresponding to an image area of about 0.65 mm × 0.65 mm. Images were imported into ImageJ and foci were counted using a macro adjusting for staining levels between experiments. Anti-γH2AX antibodies were a mouse monoclonal (Millipore; JBW301).

SNM1C [3] = target: T1, SNM1C (Homo sapiens, UniProt Q96SD1); test: real-time fluorescence-based nuclease assay, SNM1C; format: biochemical; conditions: real-time fluorescence-based nuclease assay
T1 construct: for the MBL and β-CASP domains of SNM1C (aa 1–362) into the baculovirus expression vector pBF-6HZB; made in house; host or cells: Sf9 insect cells (baculovirus)
T1 sequence (Q96SD1 1-362): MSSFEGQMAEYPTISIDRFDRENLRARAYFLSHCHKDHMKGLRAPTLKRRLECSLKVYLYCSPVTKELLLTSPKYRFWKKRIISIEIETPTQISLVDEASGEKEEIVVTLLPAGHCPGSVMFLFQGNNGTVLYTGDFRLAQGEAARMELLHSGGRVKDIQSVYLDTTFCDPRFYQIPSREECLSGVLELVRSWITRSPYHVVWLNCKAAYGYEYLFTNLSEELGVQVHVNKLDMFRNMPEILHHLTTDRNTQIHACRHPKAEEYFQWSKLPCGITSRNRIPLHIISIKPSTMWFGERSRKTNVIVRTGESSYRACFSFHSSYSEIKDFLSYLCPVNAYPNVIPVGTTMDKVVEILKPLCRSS
From the text: There is structural similarity between SNM1A, SNM1B, and SNM1C and major mechanistic features are likely conserved between the three nucleases. We therefore tested (13) and other hydroxamic acid analogues for inhibition of SNM1B and SNM1C. […] Note that the substrate utilised for the high-throughput fluorescence based and subsequent SNM1A and SNM1B assays differed slightly for SNM1C reflecting its (primarily) endonucleolytic, rather than exonucleolytic, activity (ESI Fig. 9 ^†).
(§2) Fluorescence-based nuclease digestion SNM1A–C assays were performed as described.[30,45] In the case of SNM1A and SNM1B, a 20-mer oligonucleotide with a 5′ FITC-conjugated-T and an internal BHQ-1 (black hole quencher) conjugated-T, eight nucleotides distal (3′) to the fluor was utilised; whereas for SNM1C a 20-mer oligonucleotide with a 5′ FITC-conjugated-T and a 3′ BHQ-1(black hole quencher) was used to capture all possible endonucleolytic incisions. Reactions (25 μL) were performed in 384 well microplates in nuclease buffer (20 mM HEPES-KOH pH 7.5, 50 mM KCl, 10 mM MgCl2, 0.5 mM TCEP, 0.05% (v/v) Triton-X, 0.1 mg mL^−1 BSA, 5% (v/v) glycerol) with SNM1A/B/C (0.1 nM SNM1A, 0.5 nM SNM1B and 1 nM SNM1C) as indicated. Proteins were incubated for 10 min at RT with the stated compound where applicable, before the reaction was initiated with the addition of 10 nM DNA substrate. […] Fluorescence spectra were measured every 140 s, for 35 min, at 37 °C. The fluorescence intensity of each well was plotted against compound concentration and fitted using a log (inhibitor) response curve using GraphPad Prism software (GraphPad Software, Inc., La Jolla, CA, USA).

solubility = format: physicochemical
SNM1A [4] = target: T2, SNM1A (Homo sapiens, UniProt Q6PJP8); test: real-time fluorescence-based nuclease assay, SNM1A; format: biochemical; design: DNA encoding for the MBL and β-CASP domains of SNM1A (aa 676–1040) was cloned into the baculovirus transfer vector pFB-LIC-Bse; inferred from vector pFB-LIC-Bse and the IMAC purification; made in house; host or cells: Sf9 insect cells (baculovirus); conditions: resynthesised compounds
T2 sequence (Q6PJP8 676-1040): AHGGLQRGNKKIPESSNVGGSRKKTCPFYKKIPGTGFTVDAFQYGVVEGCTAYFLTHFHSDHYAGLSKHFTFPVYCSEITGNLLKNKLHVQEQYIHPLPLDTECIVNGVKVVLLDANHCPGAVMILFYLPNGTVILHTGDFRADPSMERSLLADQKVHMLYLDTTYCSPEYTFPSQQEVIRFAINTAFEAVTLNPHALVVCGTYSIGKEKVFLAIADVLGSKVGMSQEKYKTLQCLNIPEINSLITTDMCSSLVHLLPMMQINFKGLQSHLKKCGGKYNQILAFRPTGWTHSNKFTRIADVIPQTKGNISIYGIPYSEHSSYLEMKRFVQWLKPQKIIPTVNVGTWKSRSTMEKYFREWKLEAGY
Description: (§3) In brief, the fluorescence-based nuclease assay utilises a chemically modified 20-nucleotide ssDNA substrate with a fluorescein isothiocyanate (FITC) derived 5′-group and an internal black-hole-quencher-1 (BHQ-1), located eight nucleotides distal to the fluorescein group. In the intact substrate the BHQ-1 suppresses fluorescence, however, exonucleolytic digestion of the substrate from the 5′ end by SNM1A uncouples the BHQ-1 and FITC moieties (see Fig. 1D). Spectra were measured every 140 seconds with an increase in fluorescence indicating enzymatic activity by SNM1A (concentration: 0.1 nM).
as §2

SNM1B = target: T3, SNM1B (Homo sapiens, UniProt Q9H816); test: real-time fluorescence-based nuclease assay, SNM1B; format: biochemical
T3 construct: for the MBL and β-CASP domains of SNM1B (aa 1–335) into baculoviral expression vectors pFB-CT10HF-LIC; made in house; host or cells: Sf9 insect cells (baculovirus)
T3 sequence (Q9H816 1-335): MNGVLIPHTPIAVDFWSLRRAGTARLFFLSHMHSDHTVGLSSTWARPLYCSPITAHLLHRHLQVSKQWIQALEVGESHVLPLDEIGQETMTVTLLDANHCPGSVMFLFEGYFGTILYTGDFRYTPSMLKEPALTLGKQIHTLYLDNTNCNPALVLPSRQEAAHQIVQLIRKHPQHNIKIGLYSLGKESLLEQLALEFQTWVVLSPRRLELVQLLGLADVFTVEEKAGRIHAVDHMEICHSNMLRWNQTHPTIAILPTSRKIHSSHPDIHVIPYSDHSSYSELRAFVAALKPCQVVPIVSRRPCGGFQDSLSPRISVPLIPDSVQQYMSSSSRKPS
Description: There is structural similarity between SNM1A, SNM1B, and SNM1C and major mechanistic features are likely conserved between the three nucleases. We therefore tested (13) and other hydroxamic acid analogues for inhibition of SNM1B and SNM1C. Due to differences in catalytic turnover between the three enzymes, different concentrations of SNM1B (1 nM) and SNM1C (2.5 nM) were used compared to that for SNM1A (0.5 nM) in the assays. Note that the substrate utilised for the high-throughput fluorescence based and subsequent SNM1A and SNM1B assays differed slightly for SNM1C reflecting its (primarily) endonucleolytic, rather than exonucleolytic, activity (ESI Fig. 9 ^†).
Fluorescence-based nuclease digestion SNM1A–C assays were performed as described.[30,45] […] Fluorescence was measured using a PHERAstar FSX fluorescent plate reader in fluorescent top read mode using excitation at 495 nm, emission at 525 nm, and cutoff at […]. Fluorescence spectra were measured every 140 s, for 35 min, at 37 °C. The fluorescence intensity of each well was plotted against compound concentration and fitted using a log (inhibitor) response curve using GraphPad Prism software (GraphPad Software, Inc., La Jolla, CA, USA).

SNM1A [5] = target: T2, SNM1A; design: DNA encoding for the MBL and β-CASP domains of SNM1A (aa 676–1040) was cloned into the baculovirus transfer vector pFB-LIC-Bse; inferred from vector pFB-LIC-Bse and the IMAC purification; made in house; host or cells: Sf9 insect cells (baculovirus); conditions: cited from earlier work
SNM1C [6] = target: T1, SNM1C; conditions: cited from earlier work
SNM1A [7] = target: T2, SNM1A; test: biochemical
Description: as §3

[8] = real-time fluorescence-based nuclease assay, read-out: SNM1A IC50

## N.N.[Cl][Pt][Cl] [cisplatin, reference compound]
[1]
  average γH2AX foci count at 24 hours: 10.4 ± 0.3 foci
[2]
  average number of γH2AX foci at 24 hours: 21.5 ± 0.5 foci

## COc1ccc2c3c(cccc13)C(=O)N(O)C2=O [compound 1]
SNM1C [3]
  IC50: 0.37 µM
solubility
  solubility: poor solubility
SNM1A [4]; [8]
  IC50: 2.4 µM
SNM1B
  IC50: 1.9 µM

## CO/N=C(\C(=O)N[C@@H]1C(=O)N2C(C(=O)O)=C(CSc3nc(=O)c(=O)[nH]n3C)CS[C@H]12)c1csc(N)n1 [compound 5, ceftriaxone]
SNM1A [5]
  inhibition of SNM1A (potency in words): low μM potency
SNM1C [6]
  inhibition of SNM1C (potency in words): low μM potency

## C=CCNc1nc(N[C@@H](CC(C)C)C(=O)O)c2cc(Cl)ccc2n1 [compound 6]
SNM1A [7]
  IC50: 17.4 µM
SNM1A [4]; SNM1A IC50, real-time fluorescence-based nuclease assay
  IC50: 129 µM
SNM1A [4]; [8]
  IC50: 110 µM
